Here are results for one compound from patent publication EP4361137A1, “PRUNE1 INHIBITORS AND THERAPEUTIC USE THEREOF” (CEINGE Biotecnologie Avanzate Franco Salvatore s.c. a r.l., priority 2022, dated 2024).

This experiment deals with T1, Prune1 (Homo sapiens, UniProt Q86TP1).
T1 construct: endogenous in cells; host or cells: D425-MED cells
T1 sequence (Q86TP1 1-453): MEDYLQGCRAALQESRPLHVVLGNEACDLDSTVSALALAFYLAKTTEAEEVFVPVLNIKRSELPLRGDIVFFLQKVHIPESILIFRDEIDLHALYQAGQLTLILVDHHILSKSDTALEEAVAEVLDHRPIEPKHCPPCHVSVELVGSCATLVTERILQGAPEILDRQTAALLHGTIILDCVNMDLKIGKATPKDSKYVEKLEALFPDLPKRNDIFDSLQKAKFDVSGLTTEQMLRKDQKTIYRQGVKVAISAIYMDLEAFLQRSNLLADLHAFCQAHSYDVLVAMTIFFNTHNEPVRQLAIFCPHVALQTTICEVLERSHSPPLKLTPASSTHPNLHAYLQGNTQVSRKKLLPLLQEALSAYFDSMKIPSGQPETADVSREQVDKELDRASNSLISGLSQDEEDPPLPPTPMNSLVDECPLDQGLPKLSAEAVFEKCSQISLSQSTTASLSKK
The experiment in a line: Immunoblotting and densitometry of Prune1 in D425-MED cells. The class given is cell-based. How it is done: D425.MED and MMTV-Prune1/Wnt1 cells were plated and treated with increasing concentrations of LEO-AA7.5(S)T for 24 hours. Water-treated cells were used as negative control for the experiments.
Cells for immunoblotting analysis were washed in cold PBS and lysed in cell lysis buffer [20 mM sodium phosphate (pH 7.4), 150 mM NaCl, 10% (v/v) glycerol, 1% (w/v) sodium deoxycholate, 1% (v/v) Triton X-100] supplemented with protease inhibitors (Roche). The resulting cell lysates were cleared by centrifugation at 16,200g for 10 min at room temperature, and the supernatants were re- moved and assayed for protein concentrations with the Protein Assay Dye Reagent (Bio-Rad). The cell lysates (30 µg) were resolved by SDS-polyacrylamide gel electrophoresis (SDS-PAGE) gels of different percentages, which depended on the molecular weights of the proteins of interest. The proteins were then electrophoretically transferred to polyvinylidene difluoride (PVDF) membranes (Millipore). After 1 hour in blocking solution with 5% (w/v) dry milk fat in PBS or 5% (w/v) BSA (Sigma-Aldrich) in tris-buffered saline [both of which contained 0.02% (v/v) Tween 20] […] The peak areas of the bands were measured on the densitometry plots, and the relative proportions (percentages) were calculated. […]
Background: A western blot detects proteins with antibodies after separation by electrophoresis.

As to `COc1ccc(CNc2ncnc(N3CCC[C@H](CO)C3)n2)cc1.Cl` [LEO-AA7.5(S)T, (S)-(1-(4-((4-methoxybenzyl)amino)-1,3,5-triazin-2-yl)piperidin-3-yl)methanol HCl salt], the “dose effective on Prune1 target inhibition/degradation in vitro, lower than AA7.1” value (10 µM vs 100 µM AA7.1) is recorded as 10 fold. The compound also showed a Prune1 protein levels (D425-Med cells, 10 µM, 24 hours, densitometry relative to vehicle) of 0.6 fold.
